Experimental data as given in US20180318379A1, “INHIBITION OF TRIGGERING RECEPTOR EXPRESSED ON MYELOID CELLS 1 (TREM1) TO TREAT CENTRAL NERVOUS SYSTEM DISORDERS” (The Board of Trustees of the Leland Stanford Junior …, priority 2017, published 2018).

Assays:
TREM1 [1] = test: Neuroscore after MCAo-RP stroke in mice; format: in vivo; conditions: 2 days after MCAo-RP; LP17 vs scrambled peptide; n=15-18 per group; ANOVA effect of LP17 p=0.008
TREM1 [2] = test: FACS quantification of brain myeloid cells after MCAo-RP stroke; format: in vivo, mice
Description: FIG. 12. A representation of the dynamics of immune present at the indicated days after stroke (or the temporal dynamics of immune cell subsets). Stroke was modeled in […] 3 mo male mice using 45 minutes of middle cerebral artery occlusion (MCAo) followed by reperfusion (RP).
These plots show increased CD11b^+/CD45^lo microglia and reduced CD11b^+/CD45^hi macrophages with LP17 treatment.

[3] = 2 days after MCAo-RP, LP17 vs scrambled peptide

Sequence: LQVTDSGLYRCVIYHPP [LP17]
- neuroscores (TREM1 [1]): improved
- CD11b+/CD45hi macrophages in stroked hemisphere (FACS) (TREM1 [2]; [3]): reduced
- CD11b+/CD45lo microglia in stroked hemisphere (FACS) (TREM1 [2]; [3]): increased
- infiltration of macrophages after stroke (TREM1 [2]; after MCAo-RP stroke): reduces infiltration of macrophages
